Values quoted from earlier work, collected in patent publication US20060159724A1, “Nutritional supplement for the management of weight” (priority 2000, published 2006).
Where two headings read alike, the source gives them in different places.

How the values were obtained:
[1] = area under glycemic response curve, 2-hour period after 50 g carbohydrate, divided by standard (white bread or glucose)
[2] = first 6-week period, no dietary restrictions

SMILES	decrease in carbohydrate intake (obese subjects; [2])	subjects with early satiety (obese subjects; [2])	weight loss (obese subjects; obese subjects, 900 mg 5-HTP three times a day 30 minutes before meals, two 6-week periods, p<0.02 vs control arm)	subjects with early satiety (obese subjects; second 6-week period, energy-restricted diet of 1,200 kcal)	glycemic index (GI) [1]
N[C@@H](Cc1c[nH]c2ccc(O)cc12)C(=O)O [5-HTP, 5-hydroxytryptophan]	about 50%	100%	5%	90%	
O=C(CO)[C@@H](O)[C@H](O)[C@H](O)CO [Fructose, fructose]					32
